Patent US7064122B2, “Pancreatic lipase inhibitor compounds, their synthesis and use” (OSI Pharmaceuticals, Inc., priority 2001, dated 2006)

Key:
[1] = molecular target: T1, type VI-S porcine pancreatic lipase (Sus scrofa, UniProt P00591); test: Pancreatic lipase assay (pH-stat titration, triolein substrate); assay type: biochemical; design: Ymax: unit not given here; details: for k / Ymax: 7.0 nM lipase, 700 nM inhibitor, pH 8.0; for k: k fitted for the 12.5 min after inhibitor addition, Y=Ymax*(1-exp(-k*X)); for Ymax: Ymax of the fit Y=Ymax*(1-exp(-k*X)); for inhibition at 0.7 µM: 12.5 min
T1 construct: purchased Sigma type VI-S (catalogue number not given)
T1 sequence (P00591 1-450): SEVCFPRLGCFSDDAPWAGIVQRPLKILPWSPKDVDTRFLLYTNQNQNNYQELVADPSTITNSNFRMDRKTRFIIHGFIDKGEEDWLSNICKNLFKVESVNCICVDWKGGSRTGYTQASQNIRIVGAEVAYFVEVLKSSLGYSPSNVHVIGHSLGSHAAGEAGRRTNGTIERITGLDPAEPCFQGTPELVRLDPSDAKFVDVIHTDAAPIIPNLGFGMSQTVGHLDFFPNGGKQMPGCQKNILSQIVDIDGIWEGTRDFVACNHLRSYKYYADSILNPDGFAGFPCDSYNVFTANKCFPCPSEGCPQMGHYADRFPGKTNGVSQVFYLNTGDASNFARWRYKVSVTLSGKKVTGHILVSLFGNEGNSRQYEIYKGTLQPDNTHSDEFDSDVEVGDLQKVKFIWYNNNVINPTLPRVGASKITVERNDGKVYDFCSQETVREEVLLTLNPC
Procedure: The use of a pancreatic lipase assay has been described in the literature (Hadvary, P. et al. Biochem. J. (1988) 256: 357-361; Hadvary, P. et al. Biochem. J. (1991) 266:2021-2027). Pancreatic lipase activity was measured using a 718 Stat Titrino (Brinkmann) programmed to maintain a pH of 8.0 using 0.1 N NaOH. The substrate mixture (pH 8) contained 1 mM taurochenodeoxycholate (Sigma), 9 mM taurodeoxycholate (Sigma), 0.1 mM cholesterol (Sigma), 1 mM phosphatidylcholine (Sigma), 1.5% BSA, 2 mM Tris base, 100 mM NaCl, 10 mM CaCl2, and 3% triolein (Sigma). The mixture (5 mL) was emulsified via sonication at room temperature, and added to the titration vessel with rapid stirring. The Stat Titrino was turned on and lipase (7.0 nM type VI-S porcine pancreatic lipase (Sigma) dissolved in PBS) was added to the vessel. After 10 min, inhibitor (700 nM dissolved in 100% DMSO) was added and the reaction continued for an additional 12.5 min. The k values were determined for the 12.5 min after the addition of the inhibitor using a one phase exponential association equation, Y=Ymax*(1−exp(−k*X)), k values for lipase alone were 0.0004±0.0001 sec. The k values for compounds disclosed herein are >0.0004±0.0001 sec.

Compound | k [1] | melting point [°C] | Ymax [1] | inhibition at 0.7 µM [1] [%]
CCCCCCCCNc1nc2sc(C(=O)NCC(C)(C)C)c(C)c2c(=O)o1 [Entry 58] | 0.723 10-3.s-1 | 173 to 174.5 | – | –
CCCCCCCCNc1nc2sc(C(=O)N(CCCCCCCC)CCCCCCCC)c(C)c2c(=O)o1 [Entry 41, 5-Methyl-2-octylamino-4-oxo-4H-thieno[2,3-d][1,3]oxazine-6-carboxylic acid dioctylamide] | 1.050 10-3.s-1 | 48 to 50 | 0.130 | –
CCCCCCCCNc1nc2sc(C(=O)NCC(=O)OCc3ccccc3)c(C)c2c(=O)o1 [Entry 48, [(5-Methyl-2-octylamino-4-oxo-4H-thieno[2,3-d][1,3]oxazine-6-carbonyl)-amino]-acetic acid benzyl ester] | 0.440 10-3.s-1 | 147 to 149 | – | –
CCCCCCCCNc1nc2sc(C(=O)N3CCC(Cc4ccccc4)CC3)c(C)c2c(=O)o1 [Entry 43, 6-(4-Benzyl-piperidine-1-carbonyl)-5-methyl-2-octylamino-thieno[2,3-d][1,3]oxazin-4-one] | 0.009 10-3.s-1 | 100 to 106 | – | –
CCCCCCCCCCc1cc2c(=O)oc(OCCOC)nc2s1 [Entry 96, 6-Decyl-2-(2-methoxy-ethoxy)-thieno[2,3-d][1,3]oxazin-4-one] | – | 38 to 41 | – | –
CCCCCCCCNc1nc2sc(C(=O)NCCCOC)c(C)c2c(=O)o1 [Entry 73, 5-Methyl-2-octylamino-4-oxo-4H-thieno(2,3-d)(1,3)oxazine-6-carboxylic acid (3-methoxy-propyl)-amide] | 0.794 10-3.s-1 | – | 1.594 | –
CCCCCCCCNC(=O)N(CCCCCCCC)c1nc2sc(C(=O)OCc3ccccc3)c(C)c2c(=O)o1 [Entry 13, 2-(1,3-Dioctyl-ureido)-5-methyl-4-oxo-4H-thieno[2,3-d][1,3]oxazine-6-carboxylic acid benzyl ester] | 0.414 10-3.s-1 | – | – | –
CCCCCCCOC(=O)c1sc2nc(OCCCCCCC)oc(=O)c2c1C [Entry 10, 5-Methyl-2-heptyloxy-4-oxo-4H-thieno[2,3-][1,3]oxazine-6-carboxylic acid heptyl ester] | 1.349 10-3.s-1 | – | – | –
CCCCCCCCOc1nc2sc(C(=O)OCc3ccccc3)c(C)c2c(=O)o1 [Entry 5, 5-Methyl-2-octyloxy-4-oxo-4H-thieno[2,3-d][1,3]oxazine-6-carboxylic acid benzyl ester] | 0.649 10-3.s-1 | – | – | –
2-Hexadecyloxy-5-methyl-4-oxo-4H-thieno[2,3-d][1,3]oxazine-6-carboxylic acid benzyl ester [Entry 7] | 0.779 10-3.s-1 | – | – | –
CCCCCCCCNc1nc2sc(C(=O)N(C)Cc3cccc(C)n3)c(C)c2c(=O)o1 [Entry 49, 5-Methyl-2-octylamino-4-oxo-4H-thieno[2,3-d][1,3]oxazine-6-carboxylic acid methyl-(6-methyl-pyridin-2-ylmethyl)-amide] | 0.022 10-3.s-1 | – | – | –
CCCCCCCCNc1nc2sc(C(=O)N(C)C)c(C)c2c(=O)o1 [Entry 22, 5-Methyl-2-octylamino-4-oxo-4H-thieno[2,3-d][1,3]oxazine-6-carboxylic acid dimethylamide] | 0.537 10-3.s-1 | – | – | –
CCCCCCCCNc1nc2sc(C(=O)NCc3ccco3)c(C)c2c(=O)o1 [Entry 52, 5-Methyl-2-octylamino-4-oxo-4H-thieno[2,3-d][1,3]oxazine-6-carboxylic acid (furan-2-ylmethyl)-amide] | 1.257 10-3.s-1 | – | – | –
CCCCCCCCNc1nc2sc(C(=O)NCCCOc3ccccc3)c(C)c2c(=O)o1 [Entry 44, 5-Methyl-2-octylamino-4-oxo-4H-thieno[2,3-d][1,3]oxazine-6-carboxylic acid (3-phenoxy-propyl)-amide] | 1.667 10-3.s-1 | – | – | –
CCCCCCCCN(CCCCCCCC)c1nc2sc(C(=O)OCc3ccccc3)c(C)c2c(=O)o1 [Entry 60, 2-Dioctylamino-5-methyl-4-oxo-4H-thieno[2,3-d][1,3]oxazine-6-carboxylic acid benzyl ester] | 0.013 10-3.s-1 | – | – | –
CCCCCCCCNc1nc2sc(C(=O)NCCOC)c(C)c2c(=O)o1 [Entry 72, 5-Methyl-2-octylamino-4-oxo-4H-thieno(2,3-d)(1,3)oxazine-6-carboxylic acid (2-methoxy-ethyl)-amide] | 1.102 10-3.s-1 | – | 0.185 | –
CCCCCCCCCCc1cc2c(=O)oc(Oc3ccc(CCCC)cc3)nc2s1 [Entry 102, 2-(4-Butyl-phenoxy)-6-decyl-thieno[2,3-d][1,3]oxazin-4-one] | – | 55 to 58 | – | –
CCCCCCCCOc1nc2sc(CCCCCCC)cc2c(=O)o1 [Entry 68, 6-Heptyl-2-octyloxy-thieno[2,3-d][1,3]oxazin-4-one] | 5.825 10-3.s-1 | – | 0.020 | 78.9
CCCCCCCCOC(=O)c1sc2nc(Nc3ccc(Oc4ccccc4)cc3)oc(=O)c2c1C [Entry 19, 5-Methyl-4-oxo-2-(4-phenoxy-phenylamino)-4H-thieno[2,3-d][1,3]oxazine-6-carboxylic acid octyl ester] | 0.981 10-3.s-1 | – | – | –
CCCCCCCCOc1nc2sc(C(C)C)cc2c(=O)o1 [Entry 76, 6-Isopropyl-2-octyloxy-thieno[2,3-d][1,3]oxazin-4-one] | 1.288 10-3.s-1 | – | 0.161 | –
CCCCCCCCOc1nc2sc(C(=O)O)c(C)c2c(=O)o1 [Entry 11, 5-Methyl-2-octyloxy-4-oxo-4H-thieno[2,3-d][1,3]oxazine-6-carboxylic acid] | 0.547 10-3.s-1 | – | – | –
CCCCCCCNC(=O)N(CCCCCCC)c1nc2sc(C(=O)OCc3ccccc3)c(C)c2c(=O)o1 [Entry 14, 2-(1,3-Diheptyl-ureido)-5-methyl-4-oxo-4H-thieno[2,3-d][1,3]oxazine-6-carboxylic acid benzyl ester] | 0.459 10-3.s-1 | – | – | –
CCCCCCCCNc1nc2sc(C(=O)NCCCN(C)C)c(C)c2c(=O)o1 [Entry 46] | 0.062 10-3.s-1 | – | – | –
CCCCCCCCCCCCc1cc2c(=O)oc(OCCCCCCCC)nc2s1 [Entry 88, 6-Dodecyl-2-octyloxy-thieno[2,3-d][1,3]oxazin-4-one] | – | – | – | 74.2
CCCCCCCCOc1nc2sc(C(C)CCCC(C)(C)OC)cc2c(=O)o1 (stereo not drawn) [Entry 83, 6-(5-Methoxy-1,5-dimethyl-hexyl)-2-octyloxy-thieno[2,3-d][1,3]oxazin-4-one] | – | – | – | 36.9
CCCCCCCCNc1nc2sc(C(=O)N(CCCC)CCCC)c(C)c2c(=O)o1 [Entry 36, 5-Methyl-2-octylamino-4-oxo-4H-thieno[2,3-d][1,3]oxazine-6-carboxylic acid dibutylamide] | 0.146 10-3.s-1 | – | 0.616 | –
CCCCCCCCOc1nc2sc(CCCC)cc2c(=O)o1 [Entry 75, 6-Butyl-2-octyloxy-thieno[2,3-d][1,3]oxazin-4-one] | 2.219 10-3.s-1 | – | 0.054 | –
CCCCCCCCOc1nc2sc(Cc3ccccc3)cc2c(=O)o1 [Entry 77, 6-Benzyl-2-octyloxythieno[2,3-d][1,3]oxazin-4-one] | 0.392 10-3.s-1 | – | 0.482 | –
CCCCCCCc1cc2c(=O)oc(OC(C)CCCCCC)nc2s1 (stereo not drawn) [Entry 91, 6-Heptyl-2-(1-methylheptyloxy)thieno[2,3-d][1,3]oxazin-4-one] | – | – | – | 12.4
